Experiments:
[1] = target: Homeodomain-interacting protein kinase 1 (Homo sapiens) (UniProt Q86Z02); assay: Inhibition of human HIPK1 using myelin basic protein as substrate at 1 uM in presence of 32P-ATP by Hotspot assay relative to control; values are per cent of control
[2] = target: T1, Aurora kinase C (Homo sapiens) (UniProt Q9UQB9); assay: Inhibition of human Aurora C using H-LRRASLG as substrate at 1 uM in presence of 32P-ATP by Hotspot assay relative to control; values are per cent of control
T1 sequence (whole entry): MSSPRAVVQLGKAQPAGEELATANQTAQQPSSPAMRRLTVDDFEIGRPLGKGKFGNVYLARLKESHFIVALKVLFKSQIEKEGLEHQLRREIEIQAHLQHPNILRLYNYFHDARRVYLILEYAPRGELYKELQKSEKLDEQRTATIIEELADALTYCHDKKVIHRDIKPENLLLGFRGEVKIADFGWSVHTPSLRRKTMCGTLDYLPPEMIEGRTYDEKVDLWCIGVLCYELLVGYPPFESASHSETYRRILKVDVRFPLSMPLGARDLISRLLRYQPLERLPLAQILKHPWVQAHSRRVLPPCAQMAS

[3] = target: T2, Inhibitor of nuclear factor kappa-B kinase subunit beta (Homo sapiens) (UniProt O14920); assay: Inhibition of human IKKb/IKBKB using KKKKERLLDDRHDSGLDSMKDEE as substrate at 1 uM in presence of 32P-ATP by Hotspot assay relative to control; values are per cent of control
T2 sequence (whole entry): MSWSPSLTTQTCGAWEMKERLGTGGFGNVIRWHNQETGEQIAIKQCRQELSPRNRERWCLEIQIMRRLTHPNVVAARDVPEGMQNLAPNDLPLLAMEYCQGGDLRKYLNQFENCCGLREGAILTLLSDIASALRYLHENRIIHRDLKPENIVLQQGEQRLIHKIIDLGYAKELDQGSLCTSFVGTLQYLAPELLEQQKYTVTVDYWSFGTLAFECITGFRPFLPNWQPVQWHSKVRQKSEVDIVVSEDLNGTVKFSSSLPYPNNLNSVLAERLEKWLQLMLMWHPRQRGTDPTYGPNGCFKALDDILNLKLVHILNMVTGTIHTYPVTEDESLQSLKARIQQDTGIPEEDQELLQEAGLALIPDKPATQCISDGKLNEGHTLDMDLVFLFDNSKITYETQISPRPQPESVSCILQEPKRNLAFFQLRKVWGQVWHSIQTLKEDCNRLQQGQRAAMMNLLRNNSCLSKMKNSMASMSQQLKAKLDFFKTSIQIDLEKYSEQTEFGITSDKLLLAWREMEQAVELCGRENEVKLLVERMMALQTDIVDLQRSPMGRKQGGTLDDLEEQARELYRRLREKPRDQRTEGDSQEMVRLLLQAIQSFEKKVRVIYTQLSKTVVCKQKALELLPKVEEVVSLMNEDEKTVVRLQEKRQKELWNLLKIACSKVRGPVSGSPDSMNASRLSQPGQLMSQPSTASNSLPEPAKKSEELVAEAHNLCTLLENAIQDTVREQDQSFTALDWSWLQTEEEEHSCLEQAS

[4] = target: Ribosomal protein S6 kinase alpha-5 (Homo sapiens) (UniProt O75582); assay: Inhibition of human MSK1/RPS6KA5 using GRPRTSSFAEG as substrate at 1 uM in presence of 32P-ATP by Hotspot assay relative to control; values are per cent of control
Homo sapiens = species: Homo sapiens; assay: Inhibition of human PKA using LCGRTGRRNSI as substrate at 1 uM in presence of 32P-ATP by Hotspot assay relative to control; values are per cent of control
[5] = target: Myosin light chain kinase, smooth muscle (Homo sapiens) (UniProt Q15746); assay: Inhibition of human MLCK/MYLK using KKLNRTLSFAEPG as substrate at 1 uM in presence of 32P-ATP by Hotspot assay relative to control; values are per cent of control
[6] = target: Calcium/calmodulin-dependent protein kinase kinase 1 (Homo sapiens) (UniProt Q8N5S9); assay: Inhibition of human CAMKK1 using myelin basic protein as substrate at 1 uM in presence of 32P-ATP by Hotspot assay relative to control; values are per cent of control
[7] = target: T3, Dual specificity protein kinase TTK (Homo sapiens) (UniProt P33981); assay: Inhibition of human TTK using at 1 uM in presence of 32P-ATP by Hotspot assay relative to control; values are per cent of control
T3 sequence (whole entry): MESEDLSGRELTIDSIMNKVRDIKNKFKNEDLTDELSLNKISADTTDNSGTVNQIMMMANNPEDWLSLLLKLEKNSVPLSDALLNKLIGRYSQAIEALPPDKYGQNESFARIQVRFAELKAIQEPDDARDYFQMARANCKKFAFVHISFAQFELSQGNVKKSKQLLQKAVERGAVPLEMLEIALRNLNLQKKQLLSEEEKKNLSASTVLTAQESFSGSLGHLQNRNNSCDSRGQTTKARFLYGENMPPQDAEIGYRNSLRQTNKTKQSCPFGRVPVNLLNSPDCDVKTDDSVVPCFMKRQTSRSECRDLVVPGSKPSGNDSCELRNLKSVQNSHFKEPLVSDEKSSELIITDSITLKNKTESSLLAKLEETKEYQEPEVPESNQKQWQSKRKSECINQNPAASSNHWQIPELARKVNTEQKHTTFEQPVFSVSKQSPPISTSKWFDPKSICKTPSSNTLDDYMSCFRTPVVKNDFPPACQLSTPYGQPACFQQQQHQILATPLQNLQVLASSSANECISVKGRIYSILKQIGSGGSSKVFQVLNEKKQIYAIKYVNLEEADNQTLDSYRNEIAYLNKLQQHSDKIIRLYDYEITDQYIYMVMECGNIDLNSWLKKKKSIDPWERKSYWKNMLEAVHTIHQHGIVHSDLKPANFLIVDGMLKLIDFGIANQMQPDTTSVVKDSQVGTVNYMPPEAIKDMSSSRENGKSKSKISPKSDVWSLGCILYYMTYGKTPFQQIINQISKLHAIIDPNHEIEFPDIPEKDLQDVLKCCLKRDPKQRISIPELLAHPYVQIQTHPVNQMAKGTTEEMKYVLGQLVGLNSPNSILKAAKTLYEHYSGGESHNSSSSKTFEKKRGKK

Chain of Homeodomain-interacting protein kinase 1 (Homo sapiens) (Q86Z02 whole entry, looked up): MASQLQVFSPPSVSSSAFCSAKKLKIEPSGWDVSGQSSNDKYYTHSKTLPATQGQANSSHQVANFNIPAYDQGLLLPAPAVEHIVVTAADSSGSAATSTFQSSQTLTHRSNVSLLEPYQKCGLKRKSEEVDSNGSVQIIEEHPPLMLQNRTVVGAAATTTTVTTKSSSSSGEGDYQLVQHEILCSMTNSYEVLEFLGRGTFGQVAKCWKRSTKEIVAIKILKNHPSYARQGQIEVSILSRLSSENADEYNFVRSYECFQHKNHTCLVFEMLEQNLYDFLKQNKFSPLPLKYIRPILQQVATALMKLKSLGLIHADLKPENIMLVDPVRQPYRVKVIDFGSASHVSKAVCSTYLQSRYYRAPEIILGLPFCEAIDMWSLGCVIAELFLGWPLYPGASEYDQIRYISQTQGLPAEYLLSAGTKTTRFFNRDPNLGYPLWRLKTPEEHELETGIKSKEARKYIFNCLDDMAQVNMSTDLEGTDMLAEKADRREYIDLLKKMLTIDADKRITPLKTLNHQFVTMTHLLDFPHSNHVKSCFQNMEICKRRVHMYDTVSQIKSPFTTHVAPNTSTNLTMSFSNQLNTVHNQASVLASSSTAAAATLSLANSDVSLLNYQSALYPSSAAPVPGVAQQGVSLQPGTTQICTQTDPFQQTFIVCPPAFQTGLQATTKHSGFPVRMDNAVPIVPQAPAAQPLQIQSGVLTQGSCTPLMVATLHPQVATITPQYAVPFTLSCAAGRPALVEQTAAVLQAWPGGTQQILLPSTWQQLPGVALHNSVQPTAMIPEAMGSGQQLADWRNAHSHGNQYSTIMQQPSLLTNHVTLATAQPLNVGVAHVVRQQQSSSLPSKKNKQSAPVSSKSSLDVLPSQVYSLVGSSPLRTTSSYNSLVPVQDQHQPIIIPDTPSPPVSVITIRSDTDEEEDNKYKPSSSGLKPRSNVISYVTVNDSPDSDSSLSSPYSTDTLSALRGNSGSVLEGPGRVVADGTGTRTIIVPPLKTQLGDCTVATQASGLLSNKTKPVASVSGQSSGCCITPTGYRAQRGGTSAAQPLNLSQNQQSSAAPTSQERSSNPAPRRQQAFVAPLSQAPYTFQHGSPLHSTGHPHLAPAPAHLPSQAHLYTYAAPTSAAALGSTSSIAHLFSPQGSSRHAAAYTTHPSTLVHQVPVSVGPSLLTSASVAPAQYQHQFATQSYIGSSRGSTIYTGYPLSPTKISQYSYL
Chain of Calcium/calmodulin-dependent protein kinase kinase 1 (Homo sapiens) (Q8N5S9 whole entry, looked up): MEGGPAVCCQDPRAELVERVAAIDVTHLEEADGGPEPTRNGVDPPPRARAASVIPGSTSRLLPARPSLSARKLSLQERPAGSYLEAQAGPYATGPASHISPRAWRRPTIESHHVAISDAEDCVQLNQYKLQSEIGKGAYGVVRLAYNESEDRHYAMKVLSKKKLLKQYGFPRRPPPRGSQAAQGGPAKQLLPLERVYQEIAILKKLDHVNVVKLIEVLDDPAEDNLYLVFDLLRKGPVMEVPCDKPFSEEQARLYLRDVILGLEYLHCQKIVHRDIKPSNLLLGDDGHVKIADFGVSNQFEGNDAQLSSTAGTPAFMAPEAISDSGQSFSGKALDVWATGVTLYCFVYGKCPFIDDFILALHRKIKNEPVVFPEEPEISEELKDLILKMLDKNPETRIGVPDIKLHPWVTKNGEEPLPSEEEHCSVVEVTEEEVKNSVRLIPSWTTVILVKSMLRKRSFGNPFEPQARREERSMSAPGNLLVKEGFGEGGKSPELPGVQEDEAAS
Chain of Myosin light chain kinase, smooth muscle (Homo sapiens) (Q15746 whole entry): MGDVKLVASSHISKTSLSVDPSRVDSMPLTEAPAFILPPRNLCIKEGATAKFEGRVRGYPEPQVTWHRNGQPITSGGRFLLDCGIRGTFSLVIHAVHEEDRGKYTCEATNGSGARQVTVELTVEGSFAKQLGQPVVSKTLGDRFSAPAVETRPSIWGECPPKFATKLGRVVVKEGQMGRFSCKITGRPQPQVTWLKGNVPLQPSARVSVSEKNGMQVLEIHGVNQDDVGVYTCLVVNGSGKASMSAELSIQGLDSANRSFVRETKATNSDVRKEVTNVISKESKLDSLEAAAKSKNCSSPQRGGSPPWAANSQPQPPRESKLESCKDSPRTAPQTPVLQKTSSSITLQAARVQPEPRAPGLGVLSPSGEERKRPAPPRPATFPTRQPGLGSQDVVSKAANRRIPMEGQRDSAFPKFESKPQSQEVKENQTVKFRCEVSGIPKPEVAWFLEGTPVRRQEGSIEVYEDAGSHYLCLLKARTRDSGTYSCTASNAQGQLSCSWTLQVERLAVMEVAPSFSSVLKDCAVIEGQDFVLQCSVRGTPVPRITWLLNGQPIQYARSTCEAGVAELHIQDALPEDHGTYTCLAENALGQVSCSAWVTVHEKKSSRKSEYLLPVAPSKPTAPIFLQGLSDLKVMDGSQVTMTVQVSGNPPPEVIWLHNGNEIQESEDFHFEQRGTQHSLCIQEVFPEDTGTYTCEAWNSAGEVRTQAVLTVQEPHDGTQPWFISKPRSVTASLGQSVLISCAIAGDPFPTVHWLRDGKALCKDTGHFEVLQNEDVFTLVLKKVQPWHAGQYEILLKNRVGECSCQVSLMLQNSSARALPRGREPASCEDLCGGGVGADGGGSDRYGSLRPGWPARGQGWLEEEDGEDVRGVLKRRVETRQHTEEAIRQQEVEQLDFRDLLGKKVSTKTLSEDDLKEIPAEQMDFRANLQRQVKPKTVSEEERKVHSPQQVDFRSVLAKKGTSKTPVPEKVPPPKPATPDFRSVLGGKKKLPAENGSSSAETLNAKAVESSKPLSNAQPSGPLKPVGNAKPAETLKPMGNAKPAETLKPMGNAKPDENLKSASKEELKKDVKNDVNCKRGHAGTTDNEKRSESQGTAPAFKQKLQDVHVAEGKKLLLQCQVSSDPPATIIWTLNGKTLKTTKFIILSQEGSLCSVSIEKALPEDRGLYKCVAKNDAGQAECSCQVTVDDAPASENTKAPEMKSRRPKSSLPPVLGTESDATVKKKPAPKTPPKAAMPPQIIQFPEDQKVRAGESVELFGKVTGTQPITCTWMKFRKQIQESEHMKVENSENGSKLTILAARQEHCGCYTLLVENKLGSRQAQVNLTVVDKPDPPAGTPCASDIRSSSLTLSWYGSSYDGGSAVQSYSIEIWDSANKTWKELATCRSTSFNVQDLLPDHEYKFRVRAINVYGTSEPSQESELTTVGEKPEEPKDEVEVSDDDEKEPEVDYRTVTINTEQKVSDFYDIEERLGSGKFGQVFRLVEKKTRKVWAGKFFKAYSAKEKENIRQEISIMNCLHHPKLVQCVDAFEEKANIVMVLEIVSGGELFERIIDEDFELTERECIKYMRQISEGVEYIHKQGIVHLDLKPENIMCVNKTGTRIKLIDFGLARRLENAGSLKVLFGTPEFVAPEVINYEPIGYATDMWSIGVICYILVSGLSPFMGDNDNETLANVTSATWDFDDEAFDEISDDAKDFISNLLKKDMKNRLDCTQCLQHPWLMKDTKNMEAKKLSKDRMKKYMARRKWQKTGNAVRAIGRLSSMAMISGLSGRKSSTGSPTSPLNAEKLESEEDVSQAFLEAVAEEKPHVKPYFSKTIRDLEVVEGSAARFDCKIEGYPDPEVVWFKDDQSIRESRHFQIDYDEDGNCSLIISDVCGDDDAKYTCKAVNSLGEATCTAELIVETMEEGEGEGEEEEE
Chain of Ribosomal protein S6 kinase alpha-5 (Homo sapiens) (O75582 whole entry, looked up): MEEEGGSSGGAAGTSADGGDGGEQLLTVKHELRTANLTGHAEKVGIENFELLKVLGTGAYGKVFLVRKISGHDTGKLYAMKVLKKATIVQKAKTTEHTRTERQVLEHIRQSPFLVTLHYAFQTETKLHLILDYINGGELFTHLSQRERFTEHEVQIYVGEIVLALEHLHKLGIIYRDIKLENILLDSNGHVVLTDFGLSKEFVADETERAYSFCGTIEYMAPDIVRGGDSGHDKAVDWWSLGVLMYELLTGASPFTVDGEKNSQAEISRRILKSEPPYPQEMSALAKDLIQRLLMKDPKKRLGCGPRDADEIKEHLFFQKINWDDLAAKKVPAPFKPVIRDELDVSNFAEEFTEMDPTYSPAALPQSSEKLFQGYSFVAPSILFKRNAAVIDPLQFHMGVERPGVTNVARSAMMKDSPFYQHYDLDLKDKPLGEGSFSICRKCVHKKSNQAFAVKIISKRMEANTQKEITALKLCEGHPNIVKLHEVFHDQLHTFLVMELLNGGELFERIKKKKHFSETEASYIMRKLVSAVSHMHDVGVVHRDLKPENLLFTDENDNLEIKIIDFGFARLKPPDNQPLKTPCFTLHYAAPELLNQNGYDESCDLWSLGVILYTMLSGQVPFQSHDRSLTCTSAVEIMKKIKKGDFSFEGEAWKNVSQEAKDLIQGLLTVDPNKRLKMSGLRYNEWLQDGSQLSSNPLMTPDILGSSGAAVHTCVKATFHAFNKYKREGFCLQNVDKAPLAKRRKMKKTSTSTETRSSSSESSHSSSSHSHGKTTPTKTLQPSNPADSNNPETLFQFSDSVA

Q: For Cc1cc(-c2cnc(N)c3c(-c4ccc5scnc5c4)csc23)n(C)n1, which residual activity [1] is on record?
A: Its residual activity is 102%.

Q: What about the residual activity [2] of the same molecule?
A: The residual activity was 91.3%.

Q: What about the residual activity [3] of the same molecule?
A: The residual activity was 104%.

Q: And the residual activity [4]?
A: The residual activity was 97.4%.

Q: What about the residual activity (Homo sapiens) of the same molecule?
A: The residual activity was 94.9%.

Q: And the residual activity [5]?
A: Its residual activity is 95.3%.

Q: And the residual activity [6]?
A: The residual activity was 98.6%.

Q: And the residual activity [7]?
A: The residual activity was 101%.

Q: CC(C)S(=O)(=O)c1ccc2nccc(Nc3ccc4scnc4c3)c2c1 was tested. Which residual activity [1] did it give?
A: Its residual activity is 88.3%.

Q: And the residual activity [2]?
A: The residual activity was 88.3%.

Q: And the residual activity [3]?
A: The residual activity was 93.3%.

Q: What about the residual activity [4] of the same molecule?
A: The residual activity was 97.9%.

Q: And the residual activity (Homo sapiens)?
A: The residual activity was 97.7%.

Q: What about the residual activity [5] of the same molecule?
A: The residual activity was 97.9%.

Q: What about the residual activity [6] of the same molecule?
A: Its residual activity is 99.3%.

Q: And the residual activity [7]?
A: The residual activity was 100%.

Q: Which residual activity [1] does the source give for CNC(=O)c1ccc2c(c1)ncn2-c1ccc(CC(=O)OC(C)(C)C)cc1 here?
A: The residual activity was 87.5%.

Q: And the residual activity [2]?
A: Its residual activity is 95.5%.

Q: What about the residual activity [3] of the same molecule?
A: The residual activity was 90.2%.

Q: And the residual activity [4]?
A: The residual activity was 89.4%.

Q: And the residual activity (Homo sapiens)?
A: The residual activity was 101%.

Q: What about the residual activity [5] of the same molecule?
A: Its residual activity is 97.7%.

Q: What about the residual activity [6] of the same molecule?
A: Its residual activity is 77.3%.

Q: And the residual activity [7]?
A: The residual activity was 91%.
